From PMC6203605 (Journal of biological inorganic chemistry : JBIC : a …, 2018)

Columns and labels:
HemO [1] = target: HemO (Pseudomonas aeruginosa, UniProt G3XCZ8, D99A/R188A); test: biochemical
HemO [2] = target: HemO (Pseudomonas aeruginosa, UniProt G3XCZ8, D99A); test: biochemical
HemO [3] = target: HemO (Pseudomonas aeruginosa, UniProt G3XCZ8); test: intrinsic fluorescence quenching; assay type: binding
HemO [4] = target: HemO (Pseudomonas aeruginosa, UniProt G3XCZ8, R188A); test: biochemical

C=CC1=C(C)C2=Cc3c(C=C)c(C)c4[n]3[Fe]([Cl])[n]3c(c(C)c(CCC(=O)O)c3=CC3=NC(=C4)C(C)=C3CCC(=O)O)=CC1=N2 [heme]
Kd (HemO [1]): 990 ± 210 nM | Kd (HemO [2]): 830 ± 210 nM | Kd (HemO [3]): 870 ± 170 nM | Kd (HemO [4]): 790 ± 220 nM
